In patent US12077501B2, “Compounds and compositions for intracellular delivery of agents” (ModernaTX, Inc., priority 2017, dated 2024):

Columns and labels:
[1] = Lipid clearance: % dose remaining in liver of CD-1 mice; format: in vivo; conditions: intravenous, 0.5 mg/kg, CD-1 mouse, Table 8a
Source text: In contrast, hEPO expression in rats induced by administration of a nanoparticle composition including a compound according to one of formulae (I), (Ia1)-(Ia6), (Ib), (II), (IIa), (III), and (IIIa) was substantially […] than that measured for MC3. […] Tables 7c and 7d show additional protein expressions and clearance data from compositions with various compounds disclosed herein as compared to with MC3. Tables 7e, 7f and 7g show hEPO expression data in CD-1 mice at a dose of 0.5 mpk.

[2] = pKa of nanoparticle compositions; format: physicochemical
[3] = Lipid purity change after storage in EtOH for 96 h at 25 or 37 °C; format: physicochemical
Method: Nanoparticle compositions including a therapeutic and/or prophylactic agent can be optimized according to the selection of a compound according to one of formulae (I), (Ia1)-(Ia10), (Ib), (Ic), (Id), (Id1)-(Id10), (Ie), (Ie1)-(Ie6), (II), (IIa), (III), and (IIIa), the selection of additional lipids, the amount of each lipid in the lipid component, and the wt:wt ratio of the lipid component to the therapeutic and/or prophylactic agent, as described herein. Initial studies were performed to compare the delivery efficiency of nanoparticle compositions including various compounds according to one of formulae (I), (Ia1)-(Ia10), (Ib), (Ic), (Id), (Id1)-(Id10), (Ie), (Ie1)-(Ie6), (II), (IIa), (III), and (IIIa). The cationic lipid MC3 is a current standard in the art. Also determined was the stability of nanoparticles of the disclosure, i.e., the purity after storage in EtOH for 96h at 25° C. or 37° C. (Table Id).

[4] = Particle size and polydispersity index of nanoparticle compositions (Zetasizer Nano ZS); format: physicochemical; conditions: Table 1c; nanoparticle compositions
Method: A Zetasizer Nano ZS (Malvem Instruments Ltd, Malvem, Worcestershire, UK) can be used to determine the particle size, the polydispersity index (PDI) and the zeta potential of the nanoparticle compositions in 1×PBS in determining particle size and 15 mM PBS in determining zeta potential.

[5] = Encapsulation efficiency of RNA (QUANT-IT RIBOGREEN RNA assay); format: physicochemical; conditions: Table 1c; nanoparticle compositions
Method: For nanoparticle compositions including an RNA, a QUANT-IT™ RIBOGREEN® RNA assay (Invitrogen Corporation Carlsbad, CA) can be used to evaluate the encapsulation of an RNA by the nanoparticle composition. The samples are diluted to a concentration of approximately 5 μg/mL in a TE buffer solution (10 mM Tris-HCl, 1 mM EDTA, pH 7.5). 50 μL of the diluted samples are transferred to a polystyrene 96 well plate and either 50 μL of TE buffer or 50 μL of a 2% Triton X-100 solution is added to the wells. The plate is incubated at a temperature of 37° C. for 15 minutes. The RIBOGREEN® reagent is diluted 1:100 in TE buffer, and 100 μL of this solution is added to each well. The fluorescence intensity can be measured using a fluorescence plate reader (Wallac Victor 1420 Multilablel Counter; Perkin Elmer, Waltham, MA) at an excitation wavelength of, for example, about 480 nm and an emission wavelength of, for example, about 520 nm. The fluorescence values of the reagent blank are subtracted from that of each of the samples and the percentage of free RNA is determined by dividing the fluorescence intensity of the intact sample (without addition of Triton X-100) by the fluorescence value of the disrupted sample (caused by the addition of Triton X-100).

SMILES	% Dose Remaining 6 hr [1] [%]	% Dose Remaining 24 hr [1] [%]	pKa ([2]; Table 1b)	Lipid % change purity in EtOH, 25° C., 96 h [3] [%]	Lipid % change purity in EtOH, 37° C., 96 h [3] [%]	pKa ([2]; Table 1c)	PDI [4]	Size (nm) [4] [nm]	EE (%) [5] [%]
CCCCCCCCCN(CCCC(=O)OCCCCC)CCC1CCN(C(=O)CN(CCCCCCCCC)CCN(CCCCCCCCC)CCCCCCCCC)CC1 [Compound 83, Pentyl 4-((2-(1-(N-(2-(dinonylamino)ethyl)-N-nonylglycyl)piperidin-4-yl)ethyl)(nonyl)amino)butanoate]	31.32	30.54	6.72						
CCCCCCCCCN(CCCC(=O)OCCCCC)CCCC1CCN(C(=O)CCN(CCCCCCCCC)CCN(CCCCCCCCC)CCCCCCCCC)CC1 [Compound 84, Pentyl 4-((3-(1-(3-((2-(dinonylamino)ethyl)(nonyl)amino)propanoyl)piperidin-4-yl)propyl)(nonyl)amino)butanoate]	21.23	20.86	7.01						
CCCCCCCCCN(CCCCCCCCC)CCCC1CCN(C(=O)CCN(CCCCCCCCC)CCN(CCCCCCCCC)CCCCCCCCC)CC1 [Compound 85, 3-((2-(Dinonylamino)ethyl)(nonyl)amino)-1-(4-(3-(dinonylamino)propyl)piperidin-1-yl)propan-1-one]	52.40	53.65	6.74						
CCCCCCCCCN(CCCOC(=O)CCCCC)CCC(=O)N1CCN(C(=O)CCN(CCCCCCCCC)CCN(CCCCCCCCC)CCCCCCCCC)CC1 [Compound 86, 3-((3-(4-(3-((2-(Dinonylamino)ethyl)(nonyl)amino)propanoyl)piperazin-1-yl)-3-oxopropyl)(nonyl)amino)propyl hexanoate]	0.16	0.12	7.58	8.1	20.8				
CCCCCCCCCN(CCCOC(=O)CCCCC)CCCC1CCN(C(=O)CCN(CCCCCCCCC)CCN(CCCCCCCCC)CCCCCCCCC)CC1 [Compound 87, 3-((3-(1-(3-((2-(Dinonylamino)ethyl)(nonyl)amino)propanoyl)piperidin-4-yl)propyl)(nonyl)amino)propyl Hexanoate]	0.07	0.05	6.79						
CCCCCCCCCN(CCCCCCCCC)CCN(CCCCCCCCC)CCOC(=O)C1CCN(C(=O)CN(CCCCCCCCC)CCCCCCCCC)CC1 [Compound 129, 2-((2-(Dinonylamino)ethyl)(nonyl)amino)ethyl 1-(dinonylglycyl)piperidine-4-carboxylate]		9.10		8.46	15.47	5.17	0.24	70.3	96.9
CCCCCCCCCN(CCCCCCCCC)CCN(CCCCCCCCC)CC(=O)N1CCN(C(=O)CN(CCCCCCCCC)CC(C)COC(=O)CCCCC)CC1 (centres unmarked) [Compound 130, 3-((2-(4-(N-(2-(Dinonylamino)ethyl)-N-nonylglycyl)piperazin-1-yl)-2-oxoethyl)(nonyl)amino)-2-methylpropyl hexanoate]		2.33		3.54	4.46	6.90	0.23	84.9	98.0
CCCCCCCCCN(CCCCCCCCC)CCN(CCCCCCCCC)CC(=O)N1CCN(C(=O)CN(CCCCCCCCC)CCCOC(=O)CC(C)CCC)CC1 (centres unmarked) [Compound 131, 3-((2-(4-(N-(2-(Dinonylamino)ethyl)-N-nonylglycyl)piperazin-1-yl)-2-oxoethyl)(nonyl)amino)propyl 3-methylhexanoate]		80.27		11.96	12.43	7.02	0.17	85.4	98.5
CCCCCCCCCN(CCCCCCCCC)CCN(CCCCCCCCC)CC(=O)N1CCC(CCN(CCCCCCCCC)CC(C)COC(=O)CCCCC)CC1 (centres unmarked) [Compound 132, 3-((2-(1-(N-(2-(Dinonylamino)ethyl)-N-nonylglycyl)piperidin-4-yl)ethyl)(nonyl)amino)-2-methylpropyl hexanoate]		0.81		1.84	5.54	6.49	0.23	83.1	98.6
CCCCCCCCCN(CCCOC(=O)CC(C)CCC)CCC1CCN(C(=O)CN(CCCCCCCCC)CCN(CCCCCCCCC)CCCCCCCCC)CC1 (centres unmarked) [Compound 133, 3-((2-(1-(N-(2-(Dinonylamino)ethyl)-N-nonylglycyl)piperidin-4-yl)ethyl)(nonyl)amino)propyl 3-methylhexanoate]		13.02				6.58			
CCCCCCCCCN(CCCCCCCCC)CCN(CCCCCCCCC)CC(=O)N1CCN(C(=O)CN(CCCCCCCCC)CCCC(=O)SCCCCC)CC1 [Compound 134, S-Pentyl 4-((2-(4-(N-(2-(dinonylamino)ethyl)-N-nonylglycyl)piperazin-1-yl)-2-oxoethyl)(nonyl)amino)butanethioate]		33.71		1.60	11.81	6.85	0.21	82.1	96.7
CCCCCCCCCCCCN(CCCOC(=O)CCCCCCC)CC(=O)N1CCN(C(=O)CN(CCCCCCCCC)CCN(CCCCCCCCC)CCCCCCCCC)CC1 [Compound 135, 3-((2-(4-(N-(2-(Dinonylamino)ethyl)-N-nonylglycyl)piperazin-1-yl)-2-oxoethyl)(dodecyl)amino)propyl Octanoate]		0.16		2.26	4.09	6.90	0.22	81.1	98.6
CCCCC/C=C\CCN(CC/C=C\CCCCC)CCN(CC/C=C\CCCCC)CC(=O)N1CCN(C(=O)CN(CCCCCCCCC)CCCCCCCCC)CC1 [Compound 136, 2-((2-(Di((Z)-non-3-en-1-yl)amino)ethyl)((Z)-non-3-en-1-yl)amino)-1-(4-(dinonylglycyl)piperazin-1-yl)ethan-1-one]		56.18		−0.71	0.77	6.13	0.23	72.1	97.7
